Results as given in the NIST ThermoML archive (doi:10.1016/j.jct.2016.09.014).
± gives the expanded uncertainty stated by the source.

Test: mn = molality of the nth substance listed, in mol/kg
Settings: 298.15 K, 101.3 kPa, Liquid; for binary diffusion coefficient: Taylor dispersion method; for mass density: Vibrating tube method

NCCCC(=O)O [4-aminobutanoic acid] + O
Settings	binary diffusion coefficient [m2/s]	mass density [kg/m3]
m1 = 0.001003	7.8e-10	–
m1 = 0.00106	–	997.083 ± 0.31
m1 = 0.00258	–	997.127 ± 0.31
m1 = 0.00467	–	997.199 ± 0.31
m1 = 0.005016	7.79e-10	–
m1 = 0.00517	–	997.203 ± 0.31
m1 = 0.00833	–	997.308 ± 0.31
m1 = 0.01004	7.78e-10	–
m1 = 0.01088	–	997.389 ± 0.31
m1 = 0.01968	–	997.658 ± 0.31
m1 = 0.02009	7.77e-10	–
m1 = 0.03015	7.76e-10	–
m1 = 0.03823	–	998.069 ± 0.31
m1 = 0.05033	7.72e-10	–
m1 = 0.05427	–	998.687 ± 0.31
m1 = 0.06297	–	998.944 ± 0.31
m1 = 0.07297	–	999.113 ± 0.31
m1 = 0.101	7.65e-10	–
m1 = 0.1017	–	1000.1 ± 0.31
